{
  "source": "patent US10507210B2",
  "about": "“Kinase inhibitor prodrug for the treatment of cancer” (Auckland UniServices Limited, priority 2014, dated 2019)",
  "key": {"[1]": {"test_system": "EGFR autophosphorylation (Y1068)", "quoted_text": "HCC827 and PC9 cell cultures are set up from log-phase passage flasks. Cells are seeded into 6-well plates at a density of 1 million cells per well and left for 48 hours under normoxic or hypoxic (1% O2) conditions. Following 3 hours of drug exposure, cells are washed in ice-cold PBS and lysed on ice for 30 minutes with radioimmunoprecipitation assay (RIPA) buffer containing sodium orthovanadate and sodium fluoride at final concentrations of 1 mM each. Cell debris is pelleted out by centrifugation (13,000 rpm for 2 minutes). Protein concentrations in each sample are determined by a bicinchoninic acid (BCA) assay. Equivalent amounts of protein (10 pig) are denatured (98° C. for 5 minutes) and loaded onto 4-20% Tris-Glycine protein gels for protein separation. Following transfer to a nitrocellulose membrane, each membrane was blocked with 5% bovine serum albumin (in Tris-buffered saline) for 1 hour. […] Excess primary antibody in each membrane was washed off with Tris-buffered saline. Secondary antibody (goat anti-rabbit) was added to each membrane at a dilution of 1:5000 for 2 hours. For protein detection, the membrane was washed in Tris-buffered saline to remove excess secondary antibody and chemiluminescent substrate added (Pierce Supersignal West Pico Chemiluminescent Substrate) for 5 minutes. The membrane was viewed using a Fujifilm LAS 4000 imager."}, "[2]": {"test_system": "WT EGFR driven H125 xenografts", "settings": "mouse, in vivo"}, "HCC827 tumor": {"test_system": "HCC827 tumor", "experiment": "HCC827 xenograft growth delay", "format": "in vivo, mice", "settings": "Erlotinib 10 mg/kg Qdx21 p.o.", "quoted_text": "(§1) HCC827 and PC9 human non-small cell lung cancer (NSCLC) cells were prepared in medium. […] HCC827 tumors were recruited at ˜200 mm^3 and PC9 tumors were recruited at ˜400 mm^3. When the tumors reached the desired volumes, the mice were randomly assigned to groups A-E and treated as detailed in Table 1 below:\n(§2) Body weight was recorded every 3 days or prior to dosing and the length and width of subcutaneous tumors were measured with electronic calipers every 3 days and volume calculated according to the formula for a prolate ellipsoid (π/6×length×width×width). All other clinical signs were recorded."}, "FaDu cells [3]": {"test_system": "FaDu cells", "experiment": "FaDu anti-proliferative assay, five day continuous aerobic exposure", "format": "cell-based, human", "quoted_text": "(§3) FaDu cells were grown in αMEM culture medium supplemented with 5% FBS, without routine use of antibiotics (P/S). Cultures were re-established from authenticated frozen stocks in liquid nitrogen at either >24 passages or >90 days in culture (whichever came first). The frozen cell stocks were confirmed to be free of mycoplasma using a PCR-ELIZA kit (Roche Diagnostics GmbH, Mannheim, Germany).\nCells were then treated with ten serial dilutions (3-fold) of each test compound. Cells were left to grow in a humidified incubator (5% CO2, 37° C.) for 5 days. Cells were then fixed with 40% trichloroacetic acid for 1 h at 4° C. Cells were then stained for Sulforhodamine B (SRB) expression. Cell density was determined by using the Biotek ELx808 Absorbance Microplate Reader."}, "[4]": {"test_system": "WT EGFR expressing A431 xenograft", "experiment": "A431 xenograft antitumor activity", "format": "in vivo, mice", "settings": "daily oral"}, "PC9 xenografts": {"test_system": "PC9 xenografts", "format": "in vivo", "settings": "erlotinib 10 mg/kg daily oral, period of dosing 21 days", "quoted_text": "Tumors were grown to ˜400 mm^3. When tumors were 400 mm^3 mice were randomly assigned to groups A-J and treated as detailed below:\nThe length and width of subcutaneous tumors were measured with electronic calipers every 3 days and volume calculated according to the formula for a prolate ellipsoid (π/6×length×width×width). Body weight was recorded every 3 days or prior to dosing. All other clinical signs were recorded."}, "PC9 tumor": {"test_system": "PC9 tumor", "experiment": "PC9 xenograft growth delay", "format": "in vivo, mice", "quoted_text": "as §1, §2"}, "FaDu cells [5]": {"test_system": "FaDu cells", "experiment": "FaDu anti-proliferative assay, oxic vs anoxic 24 h exposure", "format": "cell-based, human", "quoted_text": "as §3\nMonolayers of FaDu cells were harvested by trypsinisation and counted using a hemocytometer. For the oxic assays, cells were seeded (1500 cells/well) in 96 well plates and allowed to settle for 2 hours in a humidified incubator (37 C/5% CO2). Cells were then treated with ten serial dilutions (3-fold) of each test compound for 24 hours. For the anoxic plates, all supplies were pre-equilibrated for at least 72 hours in a H2/palladium-catalyst anaerobic chamber (Bactron, Shellab) to remove any residual oxygen. On the experiment day, cells were centrifuged (1000 rpm, 5 min) to pellet cells. The media was aspirated. The pellet was then taken into the anaerobic chamber and diluted in anoxia-equilibrated media (αMEM culture media, 5% FCS, 0.2 mmol/L 2′-deoxycytidine, 10 mmol/L glucose) to achieve the appropriate cell density. Cells were seeded in identical conditions to the oxic plates. Once seeded, cells were left to settle in a humidified incubator (37 C) within the anaerobic chamber for 2 hours. Anoxic plates were similarly treated with ten serial dilutions (3-fold) of each test compound. Anoxic plates were removed from the anaerobic chamber four hours after drug addition, and placed into a humidified incubator (37 C/5% CO2) for a further 20 hours. After a total of 24 hours of drug exposure, both the oxic and anoxic plates were washed three times in fresh media (αMEM+5% FCS+P/S). Cells were left to grow for a total of 5 days. After which, cells were fixed with 40% trichloroacetic acid for 1 hour at 4° C. Plates were then stained for Sulforhodamine B (SRB) expression. Cell density was determined by using the Biotek ELx808 Absorbance Microplate Reader. […]"}, "in vivo [6]": {"experiment": "in vivo", "settings": "NIH-III nude, mouse, blood, po, 10 mg/kg"}, "pEGFR (Y1068)": {"target": "pEGFR (Y1068) (Homo sapiens, UniProt P00533)", "experiment": "FaDu target modulation Western blot, pEGFR"}, "pAkt": {"test_system": "pAkt", "experiment": "FaDu target modulation Western blot, pAkt", "settings": "1 h drug, EGF 50 ng/mL 15 min"}, "[7]": {"settings": "15 mg/kg TH-4000, tumor", "quoted_text": "(§4) Mice were inoculated with PC-9 cells (˜8×10^6 cells per mouse, 42 mice in total). […] The whole tumors were snap frozen (with liquid nitrogen) and bio-pulverised. The tumors were measured every day until collection to correlate the growth kinetics of the tumor to target shutdown.\n(§5) For LC-MS/MS, 4 volumes of ice cold acetonitrile (containing 0.5 μM of D6-TH-4000 & TH-4000E) were added to the tumor samples. Samples were spun at 13,000 rpm for 5 min. and 40 μL of the supernatant was taken. To the supernant, 80 μL of 0.01% FA-Water was added and the sample was mixed. 10 μL of this sample was injected for analysis. […] The mass spectrometer was operated in electrospray positive ionization mode using multiple reaction monitoring (MRM). Agilent MassHunter software (v.4.04.00) was used for data acquisition and chromatographic peak integration."}, "pERK": {"test_system": "pERK", "experiment": "FaDu target modulation Western blot, pERK", "settings": "1 h drug, EGF 50 ng/mL 15 min"}, "EGFR signalling": {"test_system": "EGFR signalling", "experiment": "Hypoxia preconditioning and TH-4000E sensitivity in FaDu cells", "format": "cell-based, human", "settings": "48 h at 0.1% O2 or 21% O2", "protocol": "FaDu cells were seeded (500 k per well) in 6 well plates under both 0.1% O2 and 21% O2 for 48 hours. After 48 h of hypoxia preconditioning, cells were incubated with various concentrations of TH-4000E for 1 h.\nAfter the designated period of anoxic exposure, cells were washed once in ice-cold PBS. […] After clarification, a BCA assay was performed to determine the protein concentration of the samples. Absorbance readings were performed at 550 nm.\nCellular lysates were resolved by gel electrophoresis and immunoblotted for various members of the EGFR signaling axis. Each loading volume included 10 μg of protein and 25% LDS sample buffer (Life Technologies #NP0007). Samples were loaded onto NuPAGE 4-12% Bis-Tris 15 well gels (Life Technologies #NP0336) and run in MES running buffer (Life Technologies #NP0002) for approximately 2 h's at 120V or until the samples had run off the gel (whichever came first). Samples were then transferred (Transfer buffer: 25 mM Tris, 192 mM glycine, 20% methanol) for 80 mins at 100V onto nitrocellulose membranes. Blots were blocked in 5% BSA or 5% phosphoblocker (CellBiolabs #AKR-104) in TBS-T for at least 1 h. Briefly, blots were incubated with primary antibodies overnight at 4° C. After three 5 min washes in TBS-T, blots were then incubated with the appropriate HRP-conjugated secondary antibody for at least 2 hours at room temperature. […]"}, "in vivo [8]": {"experiment": "in vivo", "settings": "NIH-III, mouse, plasma, ip, 15 mg/kg; for Cmax: 15 mg/kg TH-4000 ip, ± SE", "quoted_text": "as §4, §5"}, "[9]": {"test_system": "EGFR pathway signal transduction", "experiment": "FaDu target modulation, EGFR pathway relative dose potency"}},
  "data": [
    {"smiles": "C=CC(=O)Nc1cc(Nc2nccc(-c3cn(C)c4ccccc34)n2)c(OC)cc1N(C)CCN(C)C", "note": "[AZD9291]", "values": [
      {"measurement": "effect of hypoxia on inhibition of EGFR phosphorylation", "setting": "[1]", "value": "resistance to AZD9291"}
    ]},
    {"smiles": "CN(C)C/C=C/C(=O)Nc1cc2c(Nc3ccc(F)c(Cl)c3)ncnc2cc1O[C@H]1CCOC1", "note": "[Afatinib]", "values": [
      {"measurement": "Day of average weight loss nadir", "setting": "[2]", "value": "[day 9]"}
    ]},
    {"smiles": "C#Cc1cccc(Nc2ncnc3cc(OCCOC)c(OCCOC)cc23)c1", "note": "[Erlotinib]", "values": [
      {"measurement": "Median time to RTV4", "setting": "HCC827 tumor", "value": 114, "unit": "days"},
      {"measurement": "IC50 difference, erlotinib superior to cetuximab", "setting": "FaDu cells [3]", "value": 2, "unit": "fold"},
      {"measurement": "tumor outcome", "setting": "[4]", "value": "unable to prevent tumor progression"},
      {"measurement": "tumor response", "setting": "PC9 xenografts", "value": "stable disease"},
      {"measurement": "Median Survival gain", "setting": "PC9 tumor; 10 mg/kg Erlotinib, reference Control", "value": 9, "unit": "days"},
      {"measurement": "Median time to RTV4", "setting": "PC9 tumor; Erlotinib 10 mg/kg Qdx21 p.o.", "value": 39, "unit": "days"},
      {"measurement": "effect of anoxia on sensitivity", "setting": "FaDu cells [5]", "value": "unaffected by anoxia"},
      {"measurement": "IC50 lower than cetuximab", "setting": "FaDu cells [5]; after anoxic exposure", "value": 13, "unit": "fold"},
      {"measurement": "AUC(0-inf)", "setting": "in vivo [6]", "value": 20000, "unit": "ng·h/mL"}
    ]},
    {"smiles": "CN(C)C/C=C/C(=O)Nc1cc2c(Nc3ccc(Cl)c(Br)c3)ncnc2cn1", "note": "[TH-4000E]", "values": [
      {"measurement": "concentration completely silencing pEGFR (Y1068) expression", "setting": "pEGFR (Y1068); 1 h drug, EGF 50 ng/mL 15 min", "value": "≥ 0.12", "unit": "μM"},
      {"measurement": "pEGFR expression completely silenced up to", "setting": "pEGFR (Y1068); lowest concentration of 3-fold dilutions", "value": 0.041, "unit": "μM"},
      {"measurement": "concentration largely silencing pAkt expression", "setting": "pAkt", "value": "above 0.12 μM"},
      {"measurement": "dose potency relative to cetuximab", "setting": "FaDu cells [3]", "value": 150, "unit": "fold"},
      {"measurement": "lower IC50 value than erlotinib", "setting": "FaDu cells [3]", "value": 80, "unit": "fold"},
      {"measurement": "T½β of released TKI in PC9 tumors", "setting": "[7]", "value": 84, "unit": "h"},
      {"measurement": "concentration completely silencing pERK expression", "setting": "pERK", "value": "≥ 0.12", "unit": "μM"},
      {"measurement": "dose-potency relative to erlotinib (IC50)", "setting": "FaDu cells [5]", "value": 1400, "unit": "fold"},
      {"measurement": "sensitivity, oxia- vs hypoxia-preconditioned cells", "setting": "EGFR signalling", "value": "comparable"},
      {"measurement": "AUC(0-inf)", "setting": "in vivo [8]", "value": 106, "unit": "ng·h/mL"},
      {"measurement": "half-life", "setting": "in vivo [8]", "value": 1.28, "unit": "h"},
      {"measurement": "Cmax", "setting": "in vivo [8]; Cmax obs", "value": "47 ± 3.6", "unit": "ng/mL"},
      {"measurement": "Cmax", "setting": "in vivo [8]; Cmax pred", "value": 50, "unit": "ng/mL"},
      {"measurement": "dose potency relative to TH-4000", "setting": "[9]", "value": "approximately 28 fold"},
      {"measurement": "dose potency relative to cetuximab", "setting": "[9]", "value": "at least 250 fold"}
    ]}
  ]
}
